Data as given in patent US7332475B2 (priority 2003, dated 2008).

What was measured:
[1] = test system: bovine coronavirus (BCV) Kakegawa strain and Mebus strain; details: 1, 5, 10, 20 or 30 mmol/l reduced glutathione; MDBK cells; supernatant at 24, 48, 72 and 96 hours; FIGS. 1 and 2
Method: Madin Darby Bovin Kidney (MDBK) cells (ATCC CCL-22) was incubated with a 48-well plate such that the cells were 90% confluent, and then washed twice with a phosphate buffered saline (PBS).
Each of bovine coronavirus (BCV) Kakegawa strain (procured from Nippon Zenyaku Kogyo Co., Ltd.) [2.56 to 256 hemagglutinin (HA) titer/25 μl] and Mebus strain (ATCC VR-874) (0.064 and 0.64 HA titers/25 μl) at various concentrations, these strains being diluted with fetal bovine serum (FBS)-free Minimum Essential Medium (MEM) [Science, 122, 501 (1952)], was inoculated in an amount of 200 μl/well, and incubated at 37° C. for 90 minutes while moving a plate at intervals of 15 minutes. After the culture solution was washed three times with PBS, 500 μl/well of 5% FBS-containing MEM containing 1, 5, 10, 20 or 30 mmol/l of reduced glutathione was added thereto, and the mixture was further incubated at 37° C. During the incubation, 100 μl of the supernatant was recovered in 24, 48, 72 and 96 hours to measure a hemagglutinin (HA) titer.
The HA titer was measured by adding 25 μl of PBS containing 0.03% BSA to each well, adding 25 μl of the BCV culture supernatant thereto by multiple dilution, adding 0.8% mouse immobilization red cells thereto and measuring an agglutination reaction of red cells after 3 hours. […]

[2] = test system: BCV Kakegawa strain; experiment: Contact of BCV with catechin (EGCg) before inoculation of MDBK cells, TCID50 by cell denaturation effect; type: cell-based, bovine coronavirus; details: 1 mg/ml EGCg
Method: BCV Kakegawa strain with a 50% tissue culture infectious dose (TCID50) of 1.8×10^8/ml and 1 mg/ml of catechin (EGCg: procured from Pharma Foods International Co., Ltd.) were contacted at 25° C. or 37° C. for 30, 60 or 90 minutes respectively, and a 10-fold dilution series was then produced with MEM.
After the cells were washed three times with PBS, 5% FBS-containing MEM was added in an amount of 500 μl/well, and incubation was conducted for 72 hours. Subsequently, the cells infected with the virus were identified with a cell denaturation effect to measure TCID50.

[3] = test system: BVDV(ATCC VR524); experiment: Contact of BVDV with catechin (EGCg) before inoculation of MDBK cells, detection of BVDV-derived DNA by RT-PCR; type: cell-based, bovine viral diarrhea virus; details: 1 mg/ml catechin (EGCg), incubation 6 days
Method: The cells were washed three times with PBS, and 5% FBS-containing MEM was added thereto. Incubation was further conducted at 37° C. for 6 days.
After completion of the incubation, a DNA derived from BVDV in the MDBK cells was detected by RT-PCR to confirm whether or not the cells were infected with the virus.

SMILES | growth of coronavirus (hemagglutinin (HA) titer of culture supernatant) [1] | 10^(n) TCID50/ml, EGCg-treated virus ([2]; contact 30 min, temperature cell empty (row between 25° C. and 37° C.), control 8.25) | 10^(n) TCID50/ml, EGCg-treated virus ([2]; contact at 25° C. for 30 min, control 7.25) | 10^(n) TCID50/ml, EGCg-treated virus ([2]; contact at 37° C. for 60 min, control 7.75) | 10^(n) TCID50/ml, EGCg-treated virus ([2]; contact at 37° C. for 90 min, control 6.50) | BVDV-derived DNA in MDBK cells by RT-PCR ([3]; contact at 37° C. for 30, 60 or 90 minutes) | BVDV-derived DNA in MDBK cells by RT-PCR ([3]; contact at 37° C. for 90 minutes)
N[C@@H](CCC(=O)N[C@@H](CS)C(=O)NCC(=O)O)C(=O)O [reduced glutathione, γ-L-Glu-L-Cys-Gly] | effect of inhibiting growth of coronavirus |  |  |  |  |  | 
O=C(O[C@@H]1Cc2c(O)cc(O)cc2O[C@@H]1c1cc(O)c(O)c(O)c1)c1cc(O)c(O)c(O)c1 [EGCg, epigallocatechin gallate] |  | 4.25 10^(n) TCID50/ml | 5.75 10^(n) TCID50/ml | <2.75 10^(n) TCID50/ml | <2.00 10^(n) TCID50/ml | became undetected depending on the catechin treatment time | not detected at all
